Data set [1] deals with MetAP2 (Homo sapiens, UniProt P50579). Description: MetAp2 enzymatic assay, L-Met-AMC substrate (Experimental Set-Up 1). It is filed as biochemical. As for the experimental part:
Quantitative MetAP2 activity assay by N-terminal cleavage of substrate 7-amino-4-methyl-courmarin was performed as follows: The activity of MetAP2 was measured using fluorescent peptide substrate L-Met-AMC (Santa Cruz Biotechnology, Inc, sc-207807) as described by Garrabrant et al. (Angiogenesis 7: 91-96, 2004). Briefly, the reaction (100 μl final) was initiated by adding 0.5 μg of MetAP2 or 5 μg HUVEC homogenate to reaction buffer containing 50 mM HEPES (pH 7.4), 100 mM NaCl, 0.1 mM CoCl2, 1 mg/ml PEG6000, and 250 μM L-Met-AMC substrate. The assay was prepared in black flat-bottomed 96-well microtiter plates and fluorescence was measured every 20 s over a period of 60 min at 25° C. using a microplate fluorometer (Bioteck, SynergyHT), with excitation and emission wavelengths set at 360 and 440 nm respectively. As a control the inhibition of the enzyme was obtained by incubating it with TNP-470 for 15 min before the addition of the substrate.
The inhibitory effect of the compounds were tested in MetAp2 enzymatic assay.

For data set [2] the following is noted: cited from earlier work.
In data set [3] the test system is Choroidal Neovascularization (CNV). Description: Laser-induced CNV in mice. Format: in vivo, C57Bl/6J mice. The following applies: Eylea, in the given dose and time. An excerpt:
Laser-induced CNV was generated by a previously described technique with some modifications. C57Bl/6J mice (6-8 weeks) were anesthetized by intraperitoneal injections of a mixture of 85% ketamine and 15% xylazine. A mixture of 0.5% tropicamide and 0.5% phenylephrine hydrochloride was applied to both eyes to dilate the pupils. Lesions were induced by a diode pumped solid state laser (0.1 s; spot size, 100 μm; power 120 mW) around the optic nerve through a slit lamp delivery system using a Nidek while a hand-held cover slide was used as a contact lens. Only lesions in which a subretinal bubble or focal serous detachment of the retina developed were used for the experiments. For this purpose, 4 burns were performed per eye while leaving a space around the optic disc. Intravitreal injections of the treatments were performed using a PLI-100 Pico-Injector following the laser procedure. After 7 days mice were euthanized and their eyes were removed and fixed in 4% paraformaldehyde for 60 min. The cornea and lens were removed, and the entire retina was carefully dissected from the eyecup Choroid.
Blood vessels were labeled using a 1:200 dilution of isolectin IB4 conjugated with Alexa Fluor 488 or lectin-FITC. The eyecup was flat-mounted in an aqua-mount with the sclera facing down and the choroid facing up. […] The CNV area (presented in μm2) in choroidal flat mount was evaluated using ImageJ software […]

Chain of MetAP2 (P50579 whole entry): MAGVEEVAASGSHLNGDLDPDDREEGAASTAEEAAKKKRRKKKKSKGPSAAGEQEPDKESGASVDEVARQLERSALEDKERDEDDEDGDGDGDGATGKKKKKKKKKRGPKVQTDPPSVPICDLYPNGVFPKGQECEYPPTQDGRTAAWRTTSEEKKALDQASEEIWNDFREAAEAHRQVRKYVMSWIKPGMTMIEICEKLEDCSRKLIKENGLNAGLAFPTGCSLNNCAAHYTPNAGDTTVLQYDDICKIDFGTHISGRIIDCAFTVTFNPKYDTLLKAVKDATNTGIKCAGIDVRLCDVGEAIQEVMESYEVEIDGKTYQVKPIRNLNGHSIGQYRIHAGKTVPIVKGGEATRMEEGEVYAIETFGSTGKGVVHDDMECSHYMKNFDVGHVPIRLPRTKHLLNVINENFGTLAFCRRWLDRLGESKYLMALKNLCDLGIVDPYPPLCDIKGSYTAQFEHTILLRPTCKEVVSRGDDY

`CO[C@@H]1[C@H](OC(=O)NC(=O)CCl)CC[C@]2(CO2)[C@H]1[C@@]1(C)O[C@@H]1CC=C(C)C` [AD-3201]: the “inhibition of the catalytic activity of MetAp2” value in data set [1] (0.5 microM) came to 75%; in data set [1] (2.5 microM), 97%.
For `CO[C@@H]1[C@H](OC(=O)C23CC4(C)CC(C)(CC(C)(C4)C2)C3)CC[C@]2(CO2)[C@H]1[C@@]1(C)O[C@@H]1CC=C(C)C` [AD-3306, Fumagillol-3,5,7-trimethyladamantane-1-carboxylate], in data set [1], the “activity in inhibiting the catalytic activity of MetAp2 compared to TNP-470” value is reported as “almost identical to TNP-470” and the “inhibitory effect in MetAp2 enzymatic assay (ranking among compounds)” value was “most active”.
As a reminder, the inhibition is the percentage by which the read-out fell short of the control. For `CO[C@H]1C(C2(C)O[C@@H]2CC=C(C)C)[C@]2(CC[C@H]1OC(=O)NC(=O)CCl)CO2` (some centres unmarked) [TNP-470, O-chloroacetylcarbamoyl fumagillol], the adverse side-effects result in data set [2] (in high doses) is reported as “reversible neurotoxicity in some patients”. For the same compound, the half-life in plasma entry in data set [2] (intravenous formulation) is listed as “minutes”. For the same compound, in data set [1] (2.5 microM, read-out: inhibition of the catalytic activity of MetAp2), the inhibition at 2.5 µM amounted to 95%.
As for “Eylea: the standard of care, as treatment for “wet” AMD [reference compound]”, in data set [3], the “effect on mouse laser induced CNV” value amounted to 59%.

The values above are taken from US20250129033A1, “METAP2 INHIBITORS AND USES THEREOF” (Yissum Research Development Company of the Hebrew …, priority 2022, published 2025).
